Where “and” joins values, the source holds several entries; their conditions need not be identical. Equal entries are not always repeated. Toxic doses and inconclusive results are not listed. Cut-off read from the data, not from the text of the source: active = T/C of 150% or more; inactive = T/C below 125%.
Tested on: L1210 leukemia ip in BDF1 mice, survival T/C
Assay: NCI In Vivo Anticancer Drug Screen. Data for tumor model L1210 Leukemia (intraperitoneal) in B6D2F1 (BDF1) mice
Settings: endpoint: mean survival time, higher = longer survival
Outline: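 Tumor was transplanted into mice, which were then dosed with test compound or vehicle alone. Survival was recorded for each group, and the treated figure was expressed relative to the control figure.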

[1] = dose: 100.0 mg/kg/injection, schedule: Q01DX009 (ip), vehicle: saline
[2] = dose: 200.0 mg/kg/injection, schedule: Q01DX009 (ip), vehicle: saline
[3] = dose: 100.0 mg/kg/injection, schedule: Q04DX003 (ip), vehicle: saline
[4] = dose: 200.0 mg/kg/injection, schedule: Q04DX003 (ip), vehicle: saline
[5] = dose: 100.0 mg/kg/injection, schedule: Q01DX001 (ip), vehicle: saline
[6] = dose: 200.0 mg/kg/injection, schedule: Q01DX001 (ip), vehicle: saline
[7] = dose: 100.0 mg/kg/injection, schedule: Q04DX002 (ip), vehicle: Klucel (hydroxypropylcellulose) (HPC)
[8] = dose: 200.0 mg/kg/injection, schedule: Q04DX002 (ip), vehicle: Klucel (hydroxypropylcellulose) (HPC)
[9] = dose: 400.0 mg/kg/injection, schedule: Q04DX002 (ip), vehicle: Klucel (hydroxypropylcellulose) (HPC)
[10] = dose: 400.0 mg/kg/injection, schedule: Q01DX001 (ip), vehicle: saline
[11] = dose: 100.0 mg/kg/injection, schedule: Q01DX009 (ip), vehicle: Klucel (hydroxypropylcellulose) (HPC)
[12] = dose: 100.0 mg/kg/injection, schedule: Q04DX003 (ip), vehicle: Klucel (hydroxypropylcellulose) (HPC)
[13] = dose: 200.0 mg/kg/injection, schedule: Q01DX009 (ip), vehicle: Klucel (hydroxypropylcellulose) (HPC)
[14] = dose: 200.0 mg/kg/injection, schedule: Q04DX003 (ip), vehicle: Klucel (hydroxypropylcellulose) (HPC)
[15] = dose: 400.0 mg/kg/injection, schedule: Q01DX009 (ip), vehicle: Klucel (hydroxypropylcellulose) (HPC)
[16] = dose: 400.0 mg/kg/injection, schedule: Q04DX003 (ip), vehicle: Klucel (hydroxypropylcellulose) (HPC)

Measured: T/C

NC(=O)Cc1ccc(C(C2=C(O)c3ccccc3C(=O)C2=O)C2=C(O)c3ccccc3C(=O)C2=O)cc1
inactive: dose: 75.0 mg/kg/injection, schedule: Q01DX001 (ip), vehicle: saline 96 % of control | dose: 150.0 mg/kg/injection, schedule: Q01DX001 (ip), vehicle: saline 101 % of control | dose: 300.0 mg/kg/injection, schedule: Q01DX001 (ip), vehicle: saline 91 % of control

CCOC(CN)C(Cl)(Cl)Cl (configuration not stated)
inactive: dose: 50.0 mg/kg/injection, schedule: Q01DX009 (ip), vehicle: saline 98 % of control | [1] 98 % of control and 104 % of control | [2] 101 % of control and 116 % of control

CCCCCCCCCCN1C(=O)c2ccccc2S1(=O)=O
inactive: [1] 95 % of control | [3] 97 % of control | [2] 97 % of control | [4] 100 % of control | dose: 400.0 mg/kg/injection, schedule: Q01DX009 (ip), vehicle: saline 97 % of control | dose: 400.0 mg/kg/injection, schedule: Q04DX003 (ip), vehicle: saline 95 % of control

O=c1c2c(oc3c(Cl)cc(Cl)cc13)CCCC2
inactive: dose: 50.0 mg/kg/injection, schedule: Q04DX002 (ip), vehicle: gum acacia 100 % of control | dose: 100.0 mg/kg/injection, schedule: Q04DX002 (ip), vehicle: gum acacia 104 % of control | dose: 200.0 mg/kg/injection, schedule: Q04DX002 (ip), vehicle: gum acacia 104 % of control

COc1cc(-c2ccc(Nc3ccccc3C(=O)O)c(OC)c2)ccc1N
inactive: dose: 15.0 mg/kg/injection, schedule: Q01DX Z (ip), vehicle: carboxymethylcellulose (CMC) 102 % of control | dose: 22.0 mg/kg/injection, schedule: Q01DX Z (ip), vehicle: carboxymethylcellulose (CMC) 117 % of control | dose: 23.0 mg/kg/injection, schedule: Q01DX Z (ip), vehicle: carboxymethylcellulose (CMC) 112 % of control | dose: 35.0 mg/kg/injection, schedule: Q01DX Z (ip), vehicle: carboxymethylcellulose (CMC) 111 % of control and 121 % of control | dose: 50.0 mg/kg/injection, schedule: Q01DX001 (ip), vehicle: saline 121 % of control | [5] 115 % of control | [6] 114 % of control

O=C(CSc1cc(Cl)ccc1Cl)Nc1ccc(Cl)cc1Cl
inactive: dose: 100.0 mg/kg/injection, schedule: Q04DX003 (ip), vehicle: carboxymethylcellulose (CMC) 92 % of control | dose: 200.0 mg/kg/injection, schedule: Q04DX003 (ip), vehicle: carboxymethylcellulose (CMC) 95 % of control

COC(=O)NS(=O)(=O)C1=Cc2cccc3cccc1c23
inactive: [7] 103 % of control | [8] 100 % of control | [9] 113 % of control

NC(=O)Nc1ccccc1F
inactive: [7] 106 % of control | [8] 100 % of control | [9] 100 % of control

O=C(O)C(=S)Cc1cc(=O)[nH]c(=S)[nH]1
inactive: dose: 100.0 mg/kg/injection, schedule: Q04DX003 (ip), vehicle: saline with Tween-80 102 % of control | dose: 200.0 mg/kg/injection, schedule: Q04DX003 (ip), vehicle: saline with Tween-80 97 % of control | dose: 400.0 mg/kg/injection, schedule: Q04DX003 (ip), vehicle: saline with Tween-80 92 % of control

Cc1c2cnccc2c(C)c2c1c1ccccc1n2CCNCCO
inactive: dose: 6.25 mg/kg/injection, schedule: Q01DX009 (ip), vehicle: saline with Tween-80 97 % of control | dose: 12.5 mg/kg/injection, schedule: Q01DX009 (ip), vehicle: saline with Tween-80 122 % of control | dose: 25.0 mg/kg/injection, schedule: Q01DX009 (ip), vehicle: saline with Tween-80 113 % of control | dose: 100.0 mg/kg/injection, schedule: Q04DX003 (ip), vehicle: saline sonified 111 % of control | dose: 200.0 mg/kg/injection, schedule: Q04DX003 (ip), vehicle: saline sonified 103 % of control

CC(=O)OC1COC(n2cnc3c(N4CCCCC4)ncnc32)C(OC(C)=O)C1OC(C)=O (configuration not stated)
inactive: [5] 100 % of control | [6] 96 % of control | [10] 96 % of control

CCOC(=O)CCNC(COCc1ccccc1)C(=O)OCC (configuration not stated)
inactive: [5] 98 % of control | [6] 95 % of control | [10] 106 % of control

CN(C)CCC(C(=O)N(C)C)(c1ccccc1)c1ccccc1
inactive: dose: 75.0 mg/kg/injection, schedule: Q01DX001 (ip), vehicle: carboxymethylcellulose (CMC) 94 % of control | dose: 150.0 mg/kg/injection, schedule: Q01DX001 (ip), vehicle: carboxymethylcellulose (CMC) 97 % of control

CNc1nc(Cl)cc2nc(Cl)cn12
inactive: [5] 94 % of control | [6] 96 % of control | [10] 96 % of control

CCC(=O)Nc1cc(Cl)ccc1OC
inactive: [11] 94 % of control | [12] 98 % of control | [13] 100 % of control | [14] 93 % of control | [15] 93 % of control | [16] 106 % of control

CSc1ccc(NC(=O)Nc2cccc(O)c2)cc1
inactive: [11] 101 % of control | [12] 101 % of control | [13] 103 % of control | [14] 106 % of control | [15] 101 % of control | [16] 98 % of control

CC(/C(=N\N=C(N)N)c1ccccc1)N(C)C (configuration not stated)
inactive: dose: 15.0 mg/kg/injection, schedule: Q01DX Z (ip), vehicle: methylcellulose (MC) 94 % of control | dose: 30.0 mg/kg/injection, schedule: Q01DX Z (ip), vehicle: methylcellulose (MC) 108 % of control | dose: 50.0 mg/kg/injection, schedule: Q01DX Z (oral), vehicle: methylcellulose (MC) 100 % of control | dose: 60.0 mg/kg/injection, schedule: Q01DX Z (ip), vehicle: methylcellulose (MC) 95 % of control | dose: 100.0 mg/kg/injection, schedule: Q01DX Z (oral), vehicle: methylcellulose (MC) 86 % of control | dose: 120.0 mg/kg/injection, schedule: Q01DX Z (ip), vehicle: methylcellulose (MC) 88 % of control

c1ccc(CCN2CCOCC2)nc1
inactive: [3] 109 % of control | [4] 96 % of control

C=CCc1cc(CN(C)CCO)c(O)c(OC)c1
inactive: dose: 25.0 mg/kg/injection, schedule: Q04DX003 (ip), vehicle: saline 95 % of control | dose: 50.0 mg/kg/injection, schedule: Q04DX003 (ip), vehicle: saline 95 % of control | [3] 91 % of control

CN(C)S(=O)(=O)c1ccc(NC(=O)C(Cl)(Cl)Cl)cc1
inactive: dose: 100.0 mg/kg/injection, schedule: Q01DX001 (ip), vehicle: other 104 % of control | [11] 94 % of control | dose: 100.0 mg/kg/injection, schedule: Q04DX003 (ip), vehicle: other 101 % of control | dose: 200.0 mg/kg/injection, schedule: Q01DX001 (ip), vehicle: other 96 % of control | [13] 92 % of control | dose: 200.0 mg/kg/injection, schedule: Q04DX003 (ip), vehicle: other 95 % of control | dose: 400.0 mg/kg/injection, schedule: Q01DX001 (ip), vehicle: other 98 % of control | dose: 400.0 mg/kg/injection, schedule: Q04DX003 (ip), vehicle: other 93 % of control

COc1cccc(S(C)(=O)=O)c1
inactive: dose: 75.0 mg/kg/injection, schedule: Q01DX009 (ip), vehicle: saline 105 % of control | dose: 75.0 mg/kg/injection, schedule: Q04DX003 (ip), vehicle: saline 101 % of control | dose: 150.0 mg/kg/injection, schedule: Q01DX009 (ip), vehicle: saline 97 % of control | dose: 150.0 mg/kg/injection, schedule: Q04DX003 (ip), vehicle: saline 101 % of control | dose: 300.0 mg/kg/injection, schedule: Q01DX009 (ip), vehicle: saline 92 % of control | dose: 300.0 mg/kg/injection, schedule: Q04DX003 (ip), vehicle: saline 100 % of control

Nc1ncccc1O
inactive: dose: 10.0 mg/kg/injection, schedule: Q01DX001 (ip), vehicle: saline 105 % of control | dose: 20.0 mg/kg/injection, schedule: Q01DX001 (ip), vehicle: saline 95 % of control | dose: 40.0 mg/kg/injection, schedule: Q01DX001 (ip), vehicle: saline 94 % of control

CN(C)c1ccc(/C=N/NC(=O)c2cnc3ccccc3c2)cc1
inactive: dose: 100.0 mg/kg/injection, schedule: Q04DX002 (ip), vehicle: saline with Tween-80 102 % of control | dose: 200.0 mg/kg/injection, schedule: Q04DX002 (ip), vehicle: saline with Tween-80 97 % of control | dose: 400.0 mg/kg/injection, schedule: Q04DX002 (ip), vehicle: saline with Tween-80 94 % of control

Source: PubChem BioAssay AID248 (DTP/NCI, 2004)
